From the supplement of paper PMC11451515

System: SEM cells
Assay: cell viability relative to DMSO control; higher = less cytotoxic
Conditions: 48 h
Summary of the method: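 Viability was expressed as a per-plate percentage of DMSO wells, with cell-free wells as background. Leukemia cells (NOMO1 or SEM at 500 cells/well, P12-Ichikawa at 1000 cells/well) were adapted for at least four passages in each medium and seeded in 1536-well plates (5 μl). Library compounds in DMSO were pin-dosed over an 11-point threefold series from 47 μM to 0.79 nM, and CellTiter-Glo One luminescence was read after 48 h at 37°C.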

[1] = HPLM + 10% dialyzed FBS, 0.000781 µM
[2] = HPLM + 10% dialyzed FBS, 0.00234 µM
[3] = HPLM + 10% dialyzed FBS, 0.00702 µM
[4] = HPLM + 10% dialyzed FBS, 0.0211 µM
[5] = HPLM + 10% dialyzed FBS, 0.0632 µM
[6] = HPLM + 10% dialyzed FBS, 0.19 µM
[7] = HPLM + 10% dialyzed FBS, 0.569 µM
[8] = HPLM + 10% dialyzed FBS, 1.71 µM
[9] = HPLM + 10% dialyzed FBS, 5.12 µM
[10] = HPLM + 10% dialyzed FBS, 15.4 µM
[11] = HPLM + 10% dialyzed FBS, 46.1 µM
[12] = RPMI 5 mM glucose + 10% dialyzed FBS, 0.000781 µM
[13] = RPMI 5 mM glucose + 10% dialyzed FBS, 0.00234 µM
[14] = RPMI 5 mM glucose + 10% dialyzed FBS, 0.00702 µM
[15] = RPMI 5 mM glucose + 10% dialyzed FBS, 0.0211 µM
[16] = RPMI 5 mM glucose + 10% dialyzed FBS, 0.0632 µM
[17] = RPMI 5 mM glucose + 10% dialyzed FBS, 0.19 µM
[18] = RPMI 5 mM glucose + 10% dialyzed FBS, 0.569 µM
[19] = RPMI 5 mM glucose + 10% dialyzed FBS, 1.71 µM
[20] = RPMI 5 mM glucose + 10% dialyzed FBS, 5.12 µM
[21] = RPMI 5 mM glucose + 10% dialyzed FBS, 15.4 µM
[22] = RPMI 5 mM glucose + 10% dialyzed FBS, 46.1 µM
[23] = RPMI 5 mM glucose + 10% FBS, 0.000781 µM
[24] = RPMI 5 mM glucose + 10% FBS, 0.00234 µM
[25] = RPMI 5 mM glucose + 10% FBS, 0.00702 µM
[26] = RPMI 5 mM glucose + 10% FBS, 0.0211 µM
[27] = RPMI 5 mM glucose + 10% FBS, 0.0632 µM
[28] = RPMI 5 mM glucose + 10% FBS, 0.19 µM
[29] = RPMI 5 mM glucose + 10% FBS, 0.569 µM
[30] = RPMI 5 mM glucose + 10% FBS, 1.71 µM
[31] = RPMI 5 mM glucose + 10% FBS, 5.12 µM
[32] = RPMI 5 mM glucose + 10% FBS, 15.4 µM
[33] = RPMI 5 mM glucose + 10% FBS, 46.1 µM

Structure (SMILES)	cell viability [1] [%]	cell viability [2] [%]	cell viability [3] [%]	cell viability [4] [%]	cell viability [5] [%]	cell viability [6] [%]	cell viability [7] [%]	cell viability [8] [%]	cell viability [9] [%]	cell viability [10] [%]	cell viability [11] [%]	cell viability [12] [%]	cell viability [13] [%]	cell viability [14] [%]	cell viability [15] [%]	cell viability [16] [%]	cell viability [17] [%]	cell viability [18] [%]	cell viability [19] [%]	cell viability [20] [%]	cell viability [21] [%]	cell viability [22] [%]	cell viability [23] [%]	cell viability [24] [%]	cell viability [25] [%]	cell viability [26] [%]	cell viability [27] [%]	cell viability [28] [%]	cell viability [29] [%]	cell viability [30] [%]	cell viability [31] [%]	cell viability [32] [%]	cell viability [33] [%]
CO[C@@H]1[C@@H](OC(N)=O)[C@@H](O)[C@H](OC2=CC=C3\C(=C(NC(=O)C4=CC=C([O-])C(=C4)CC=C(C)C)/C(=O)OC3=C2C)O)OC1(C)C	106	110	123	97.7	118	116	102	101	121	98.7	117	105	106	109	114	111	115	109	101	107	81.5	110											
CCOC(CN1C(=O)[C@](CC(=O)Nc2ccc(C)cc2)(NC(=O)Nc2ccc(C)cc2)c2ccccc21)OCC	117	101	105	120	105	116	114	102	86.6	99.6	73.5	109	115	100	113	122	113	110	98.4	102	105	66.5	99	98.8	113	108	99.4	108	119	87.7	75.9	77.3	79.9
Clc1ccccc1C(c1ccccc1)(c1ccccc1)n1cccn1	104	121	119	123	113	130	118	124	126	107	121	124	129	124	130	138	121	124	122	137	122	144											
O=C(O)CSCC(=O)NC1CCSC1=O (stereo not given)	77.6	98.4	91.5	80.6	99.3	91.9	112	102	100	89.5	92.6	83.4	98.4	100	100	115	105	107	108	118	104	94.9	73.3	87.6	96.4	92.9	107	113	111	104	101	97	98.8
O=C(c1ccc(/C=C/c2n[nH]c3ccccc23)cc1)N1CCNCC1	82.7	77.8	83.4	79	60.7	53.2	48.1	16.3	20	19.3	19.8	75.8	78.2	73.1	80.2	66.3	51.9	38.2	15.9	15.9	14.6	13.3	109	120	106	85.3	82.7	56.2	62.1	10.9	11.7	12.3	13.3
Nc1nc(Nc2ccc([S+](N)(=O)[O-])cc2)nn1C(=O)c1c(F)cccc1F	104	111	97.8	133	104	113	123	116	64.1	32.1	5.68	88.9	108	114	115	110	122	111	123	64.8	34.5	4.33	100	107	113	110	114	101	100	109	76.5	34.7	6.53
C[C@]12CC[C@@H]3c4ccc(O)cc4CC[C@H]3[C@@H]1CC[C@@H]2O	109	110	121	115	98.9	119	113	97.4	95.7	85.2	23.4	127	118	124	144	116	121	114	115	105	82	16.5	124	124	129	142	125	123	118	114	113	84	21.1
CN1CC/C(CC1)=C3\c4ccccc4CC(=O)c2sccc23	107	110	127	121	119	122	127	133	142	123	110	117	114	126	104	119	129	135	108	128	106	113	115	124	123	114	127	125	126	116	145	129	103
CCc1ccc(C(=O)Nc2cc(CN3CCN(C)CC3)cc(C(F)(F)F)c2)cc1C#Cc1cnc2ccnn2c1	121	113	122	126	116	128	77.4	122	109	73.7	74.4												110	118	114	109	111	106	98.3	116	95.9	94.1	71.9
C[N]1N=CC2=C1C=C(C(=C2)OC3=CC=C(NC(=O)\C4=C\C=C(\C)N(C4=O)C5=CC=C(F)C=C5)C=C3F)C6=C[NH]N=C6	98.7	93.2	94.4	94.5	62.3	54	48.3	43	11.1	6.77	7.19	98.5	105	97.8	89.4	54.5	52.1	50.8	43.7	11.4	7.29	7.53	91.5	100	96.6	84.3	54.7	56.1	59.1	38.9	9.63	8.07	8.6
COCCCOc1ccnc(C[S+]([O-])c2nc3ccccc3[nH]2)c1C (stereo not given)	97	102	110	115	107	113	127	109	102	109	94.3	97.9	110	91.3	107	98.8	103	109	100	115	108	108	72.3	72.1	71.3	82.6	73.1	79	78.6	76.7	65.6	81.3	75.2
NCCCCCC(=O)O	87.3	17	101	42.8	108	119	111	119	116	107	115	35.6	9.07	101	39.5	100	99.9	101	100	94.3	98	103	91.7	115	104	36.5	103	102	111	104	96.4	98	97.4
COc1cc(Nc2ncc(F)c(Nc3ccc4c(n3)N(COP(=O)(O)O)C(=O)C(C)(C)O4)n2)cc(OC)c1OC	77	88.7	95.8	91.2	65.9	55.2	35	33.5	49.9	37.1	35.5	80.8	96.6	83.5	82.1	60.2	35.7	25.1	23.7	35.1	22	24.6	98.2	108	102	107	77.9	41.1	26.5	34.7	42.8	35.1	34.4
C=CCc1cc(OC)c(O)c(C(=O)NCCO)c1	110	101	101	103	116	98.7	112	92	98.6	69.3	64.3	110	83.8	99.1	102	105	113	105	103	96.6	78.4	66.8	97.4	108	108	110	102	112	98.1	88	99.2	77.1	68.6
CCN1\C=C(C(O)=O)/C(=O)C2=C1C=C(N3CCN(C)CC3)C(=C2)F	107	112	98.6	117	104	115	129	105	109	110	96.7	107	114	108	107	95.6	108	106	83.6	106	109	91.8	108	112	128	116	107	120	105	117	108	107	103
C[C@H](NC(=O)Cc1cc(F)cc(F)c1)C(=O)N[C@@H]1C(=O)N(C)c2ccccc2-c2ccccc21	84.8	106	103	77.7	102	102	110	106	35.4	3.3	2.09	107	103	100	79.4	112	109	113	105	5.44	3.49	2.01	94.2	101	88.5	80.6	107	103	98.1	16	4.52	3.08	1.53
